Test results taken from US11130741B2 (Bioimics AB, priority 2016, dated 2021).
In brackets after ≈: the same amount, converted by molar mass. Read-outs that look alike come from different tables or passages of the source.

Tests used:
S. pneumoniae ATCC 49619 = assay: MIC, S. pneumoniae ATCC 49619; assay type: cell-based; conditions: Streptococcus pneumoniae, ATCC49619
[1] = system: Staphylococcus aureus (ATCC25923); assay: MIC, broth microdilution (CLSI), Staphylococcus aureus ATCC25923; conditions: ATCC25923, read-out: S. aureus ("Clinical") MIC
[2] = system: E. coli RNase P RNA, M1 RNA; assay: Inhibition of bacterial RNase P activity, IC50 determination (cleavage of pATSerUG by M1 RNA); assay type: biochemical; conditions: NI = No inhibition
[3] = system: S. aureus MRSA ATCC 33591; assay: MIC, S. aureus MRSA ATCC 33591; assay type: cell-based; conditions: Staphylococcus aureus; read-out: MIC S. aureus MRSA ATCC 33591
A. baumannii ATCC 17978 = assay: MIC, A. baumannii ATCC 17978; assay type: cell-based; conditions: Acinetobacter baumannii, ATCC17978
[4] = system: Staphylococcus aureus subsp. aureus (ATCC29213); assay: MIC, broth microdilution (CLSI), Staphylococcus aureus subsp. aureus ATCC29213; assay type: cell-based
N. gonorrhoeae 612501 = assay: MIC, N. gonorrhoeae 612501; assay type: cell-based; conditions: Neisseria gonorrhoeae
S. aureus ATCC 29213 = assay: MIC, S. aureus ATCC 29213 + 50% HS; assay type: cell-based; conditions: Staphylococcus aureus, ATCC29213
[5] = system: P. aeruginosa NTUH-974 (MDR); assay: MIC, P. aeruginosa NTUH-974 (MDR); assay type: cell-based
H. influenzae ATCC 49247 = assay: MIC, H. influenzae ATCC 49247; assay type: cell-based; conditions: Haemophilus influenzae, ATCC49247
[6] = system: Pseudomonas aeruginosa (ATCC27853); assay: microbe, parasite or virus in culture; assay type: cell-based; conditions: read-out: MIC P. aeruginosa ATCC 27853
K. pneumoniae ATCC 43816 = assay: MIC, K. pneumoniae ATCC 43816; assay type: cell-based; conditions: Klebsiella pneumoniae, ATCC43816
E. coli JW5503 = assay: MIC, E. coli JW5503; assay type: cell-based; conditions: Escherichia coli, JW5503, read-out: MIC E. coli JW5503
[7] = system: Escherichia coli (ATCC25922); assay: MIC, broth microdilution (CLSI), Escherichia coli ATCC25922
Protocol: Initial minimal inhibitory concentration (MIC) tests were made on two bacterial strains: • Escherichia coli (ATCC25922) • Staphylococcus aureus (ATCC25923).
Minimal Inhibitory Concentration (MIC)
MIC values were determined using the standard broth microdilution procedure based on the guidelines by the Clinical and Laboratory Standards Institute (CLSI). Briefly, the compounds were dissolved in DMSO to 10 mM. They were diluted in cation-adjusted Mueller-Hinton broth (CAMHB) to four times the highest concentration tested. A serial 2-fold dilution in CAMHB was done in microdilution plates. The inoculum of bacterial strain to be tested was prepared by making a suspension of colonies from an 18 to 24 hours old plate in CAMHB. The inoculum was diluted so that, after inoculation, each well contained approximately 5×10^5 CFU/mL. To a volume of 50 μl compound in CAMHB an equal volume of inoculum was added. The tray was sealed in a plastic bag and incubated at 35° C. for 16 to 20 hours. To aid in the detection of growth the dye resazurin was added to a final concentration 0.001% and incubated at room temperature for 1 h. Reduction of resazurin, and therefore bacterial growth, was seen as a change from blue to pink.

E. faecium ATCC 700221 = assay: MIC, E. faecium ATCC 700221; assay type: cell-based; conditions: Enterococcus faecium, ATCC700221; read-out: MIC E. faecium ATCC 700221
[8] = system: Enterococcus faecalis (ATCC29212); assay: MIC, broth microdilution (CLSI), Enterococcus faecalis ATCC29212; assay type: cell-based; conditions: read-out: MIC E. faecalis ATCC 29212
[9] = ATCC29213, Table 15, read-out: S. aureus ("wound") (MIC)
[10] = ATCC29213, Table 16, read-out: MIC S. aureus ATCC 29213
[11] = Pseudomonas aeruginosa; read-out: MIC P. aeruginosa NTUH-974 (MDR)
[12] = ATCC25922, read-out: E. coli MIC, Table 15, NI = No inhibition
[13] = ATCC25922, read-out: MIC E. coli ATCC 25922, Table 16
[14] = Pseudomonas aeruginosa, read-out: MIC P. aeruginosa NTUH-974 (MDR)

SMILES | MIC (S. pneumoniae ATCC 49619) | MIC [1] | IC50 [2] | MIC [3] | MIC (A. baumannii ATCC 17978) | MIC [4, 9] | MIC [4, 10] | MIC (N. gonorrhoeae 612501) | MIC (S. aureus ATCC 29213) | MIC [5, 11] | MIC (H. influenzae ATCC 49247) | MIC [6] | MIC (K. pneumoniae ATCC 43816) | MIC (E. coli JW5503) | MIC [7, 12] | MIC [7, 13] | MIC (E. faecium ATCC 700221) | MIC [8] | MIC ([7]; ATCC25922, read-out: MIC E. coli ATCC 25922) | MIC [5, 14]
NC1CCCC(C(=O)Nc2cc(C(F)(F)F)cc3c2Nc2ccc(-c4cc5ccccc5[nH]4)cc2S3)C1 (stereo not shown) [compound 242, N-(7-(1H-Indol-2-yl)-3-(trifluoromethyl)-10H-phenothiazin-1-yl)-3-aminocyclohexanecarboxamide] | 16 µg/mL (≈ 30.6 µM) | 4 µg/mL (≈ 7.65 µM) | 3 µM | 2 µg/mL (≈ 3.83 µM) | 16 µg/mL (≈ 30.6 µM) | 8 µg/mL (≈ 15.3 µM) | 2 µg/mL (≈ 3.83 µM) | 2 µg/mL (≈ 3.83 µM) | 128 µg/mL | 64 µg/mL (≈ 122 µM) | 16 µg/mL (≈ 30.6 µM) | > 128 µg/mL | – | – | – | – | – | – | – | –
NCCCN1c2ccc(-c3cc4ccccc4[nH]3)cc2Sc2cc(C(F)(F)F)ccc21 [compound 245, 3-(3-(1H-indol-2-yl)-7-(trifluoromethyl)-10H-phenothiazin-10-yl)propan-1-amine] | 16 µg/mL (≈ 36.4 µM) | 2 µg/mL (≈ 4.55 µM) | 1 µM | 2 µg/mL (≈ 4.55 µM) | 16 µg/mL (≈ 36.4 µM) | 1 µg/mL (≈ 2.28 µM) | 2 µg/mL (≈ 4.55 µM) | 2 µg/mL (≈ 4.55 µM) | 128 µg/mL | 64 µg/mL (≈ 146 µM) | 4 µg/mL (≈ 9.1 µM) | > 128 µg/mL | 32 µg/mL (≈ 72.8 µM) | 8 µg/mL (≈ 18.2 µM) | 7 µg/mL (≈ 15.9 µM) | 8 µg/mL (≈ 18.2 µM) | 1 µg/mL (≈ 2.28 µM) | 2 µg/mL (≈ 4.55 µM) | – | –
NCC(O)CNC(=O)c1cc2c(c([N+](=O)[O-])c1)Nc1ccccc1S2 (stereo not shown) [compound 94, N-(3-amino-2-hydroxypropyl)-1-nitro-10H-phenothiazine-3-carboxamide] | – | 64 µg/mL (≈ 178 µM) | 202 µM | – | – | 94 µg/mL (≈ 261 µM) | – | – | – | – | – | – | – | – | > 100 µg/mL | – | – | – | – | –
NCCCN1c2ccc(-c3cc4ccccc4[nH]3)cc2Sc2cc(N3CCNCC3)ccc21.O=C(O)C(F)(F)F [compound 244, 3-(3-(1H-indol-2-yl)-7-(piperazin-1-yl)-10H-phenothiazin-10-yl)propan-1-amine] | – | 9 µg/mL | 4 µM | – | – | 4 µg/mL | – | – | – | – | – | – | – | – | 36 µg/mL | – | – | – | – | –
CN(C)CCCN1c2ccccc2Sc2cc(-c3cc4cc(C#N)ccc4[nH]3)ccc21 [compound 123, 2-(10-(3-(dimethylamino)propyl)-10H-phenothiazin-3-yl)-1H-indole-5-carbonitrile] | 8 µg/mL (≈ 18.8 µM) | 2 µg/mL (≈ 4.71 µM) | > 100 µM | 8 µg/mL (≈ 18.8 µM) | 64 µg/mL (≈ 151 µM) | 2 µg/mL (≈ 4.71 µM) | 2 µg/mL (≈ 4.71 µM) | 1 µg/mL (≈ 2.36 µM) | 64 µg/mL | – | 16 µg/mL (≈ 37.7 µM) | > 128 µg/mL | > 128 µg/mL | 4 µg/mL (≈ 9.42 µM) | > 100 µg/mL | – | 2 µg/mL (≈ 4.71 µM) | 2 µg/mL (≈ 4.71 µM) | > 128 µg/mL | > 128 µg/mL
CNCCCN1c2ccccc2Sc2cc(-c3cc4ccccc4[nH]3)ccc21 [compound 186, 3-(3-(1H-indol-2-yl)-10H-phenothiazin-10-yl)-N-methylpropan-1-amine] | 32 µg/mL (≈ 83 µM) | 2 µg/mL (≈ 5.19 µM) | 30 µM | 8 µg/mL (≈ 20.8 µM) | 16 µg/mL (≈ 41.5 µM) | – | 4 µg/mL (≈ 10.4 µM) | 4 µg/mL (≈ 10.4 µM) | 64 µg/mL | – | 16 µg/mL (≈ 41.5 µM) | > 128 µg/mL | 128 µg/mL (≈ 332 µM) | 4 µg/mL (≈ 10.4 µM) | 99 µg/mL (≈ 257 µM) | 16 µg/mL (≈ 41.5 µM) | 4 µg/mL (≈ 10.4 µM) | 4 µg/mL (≈ 10.4 µM) | – | > 128 µg/mL
NCCN1CCC(Nc2cc(C(F)(F)F)cc3c2Nc2ccccc2S3)CC1 [compound 140, N-(1-(2-Aminoethyl)piperidin-4-yl)-3-(trifluoromethyl)-10H-phenothiazin-1-amine] | 32 µg/mL (≈ 78.3 µM) | 3 µg/mL (≈ 7.34 µM) | 8 µM | 4 µg/mL (≈ 9.79 µM) | 8 µg/mL (≈ 19.6 µM) | 8 µg/mL (≈ 19.6 µM) | 4 µg/mL (≈ 9.79 µM) | 2 µg/mL (≈ 4.9 µM) | 128 µg/mL | 32 µg/mL (≈ 78.3 µM) | 8 µg/mL (≈ 19.6 µM) | 64 µg/mL (≈ 157 µM) | 8 µg/mL (≈ 19.6 µM) | 8 µg/mL (≈ 19.6 µM) | 7 µg/mL (≈ 17.1 µM) | 32 µg/mL (≈ 78.3 µM) | 4 µg/mL (≈ 9.79 µM) | 4 µg/mL (≈ 9.79 µM) | – | –
